Results from US20210353751A1, “COMBINATION THERAPIES FOR TREATMENT OF INFLAMMATORY DISEASES” (The Regents of The University of California, priority 2018, published 2021).
Read-outs that look alike come from different tables or passages of the source.

How the values were obtained:
Newly-diabetic NOD mice [1] = settings: oral GABA at 20 mg/ml, monotherapy; cited from earlier work
[2] = after intravenous or intraperitoneal injection; cited from earlier work
Newly-diabetic NOD mice [3] = test: Anti-CD3 plus GABA in newly-diabetic NOD mice: glycemia and islet staining (insulin/glucagon) after three months; format: in vivo
Procedure: Newly-diabetic NOD mice (blood glucose 220-300 mg/dL on two consecutive days) were treated with anti-CD3 (non-Fc binding anti-CD3ε F(ab′)2 from BioExpress, 40 μg/day intravenously for 5 consecutive days) and immediately began one of the following additional treatments: • (1) control PBS IP; • (2) GABA (dissolved in PBS, 250 μg/kg, IP); • (3) control plain drinking water; or • (4a) drinking water containing 6 mg/ml GABA or (4b) drinking water containing 20 mg/ml GABA. Mice drink approximately 4 ml/day, so Group 4a consumed approximately 24 mg/day of GABA and Group 4b consumed approximately 80 mg/day of GABA.
Three months after beginning treatment, pancreata from the mice were removed and sections (4 μm) were stained with Alexa Fluor 647-anti-glucagon (shown in red in the Figures) and Alexa-488 conjugated with anti-insulin (shown in green in the Figures), followed by staining with 4′,6-diamidino-2-phenylindole (“DAPI”). Images were captured using a fluorescent microscope and at least 30 islets from each group of mice (n=4) were analyzed. Data are representative islet images or expressed as the mean±standard deviation (“SD”) of each group.

[4] = tested on: splenic Tregs of SJL mice; settings: homotaurine monotherapy, EAE model; cited from earlier work
[5] = tested on: PLN mononuclear cells of NOD mice; test: Pancreatic lymph node (PLN) mononuclear cell analysis; format: in vivo; settings: treated at 15-18 weeks in age, studied 3 weeks later; monotherapies relative to control, combination relative to monotherapies
Excerpt: This increase was significant for CD4^+CD25^+Foxp3^+ cells in comparison to homotaurine monotherapy. Thus, combined therapy also elevated the average frequencies of CD4^+ and CD8^+ Tregs within the target tissue/PLN of NOD mice

GABA-R = settings: relative to GABA; cited from earlier work
[6] = tested on: newly severely hyperglycemic NOD mice; test: Combined GABA-R agonist and low-dose anti-CD3 treatment in severely hyperglycemic NOD mice (remission/relapse); format: in vivo; settings: homotaurine alone 0.25 mg/ml; severe hyperglycemia at entry
Procedure: The inventors hypothesized that combining GABA-Receptor activation with an immunosuppressant may allow effective disease reversal using lower dosages of the immunosuppressant and thereby reduce the possibility of side effects. The inventors chose to test anti-CD3 since it is a prototypic immunosuppressant that is in clinical use. In pilot studies, the inventors developed a low-dose anti-CD3 treatment protocol (35 μg anti-CD3 on three consecutive days), which reversed hyperglycemia in about a third of newly-diabetic NOD mice with severe hyperglycemia at entry into the study (blood glucose >350 mg/dL). The inventors then treated newly severely hyperglycemic NOD mice with low-dose anti-CD3 together with homotaurine (0.25 mg/ml), GABA (6 mg/ml), or plain water.
For these studies, the inventors initiated treatment when the NOD mice had blood glucose levels >350 mg/dL. […] Treated mice with two consecutive blood glucose readings below 250 mg/dL were considered to be in remission after which two consecutive blood glucose readings >250 mg/dL was considered to be disease relapse […]
Treatment was initiated when the NOD mice had blood glucose levels >350 mg/dL. […] Treated mice with two consecutive blood glucose readings below 250 mg/dL were considered to be in remission after which two consecutive blood glucose readings >250 mg/dL was considered to be disease relapse.

Newly-diabetic NOD mice [7] = test: Homotaurine monotherapy dose-finding study in newly-diabetic NOD mice; format: in vivo
Procedure: To determine whether homotaurine had therapeutic potential in NOD mice, the inventors performed a dose finding study with homotaurine dissolved in the drinking water at 0, 0.08, 0.25 or 0.75 mg/ml. […] Newly-diabetic NOD mice that were untreated rapidly progressed to severe hyperglycemia within 1 week. […] Thus, oral homotaurine monotherapy at an appropriate dose can quickly correct hyperglycemia and maintain normoglycemia for a short period, but most of the treated mice become hyperglycemic again.
A dose finding study was performed with homotaurine dissolved in the drinking water at 0, 0.08, 0.25 or 0.75 mg/ml to determine the therapeutic potential in NOD mice. […] Newly-diabetic NOD mice that were untreated rapidly progressed to severe hyperglycemia within 1 week. […] Thus, oral homotaurine monotherapy at an appropriate dose can quickly correct hyperglycemia but most of the treated mice become hyperglycemic again within a short period.
NOD mice (Taconic Farms, Germantown) were housed in a specific pathogen-free facility. Only female NOD mice were used.
Blood glucose levels were monitored 2-3 times weekly using a One Touch Ultrasensitive monitor and those with two consecutive daily blood glucose levels between 250-300 mg/dL were entered into the study. The mice were randomly assigned to groups that continually received water containing 0, 0.08, 0.25, or 0.75 mg/ml homotaurine, pH 7.2 through their drinking water. Each mouse consumed on average about 4-5 ml of water per day. Water bottles were changed every five days. Treated mice with two consecutive blood glucose readings below 250 mg/dL were considered to be in remission after which two consecutive blood glucose readings >250 mg/dL was considered disease relapse.

[8] = homotaurine 0.08 mg/ml in drinking water
[9] = homotaurine 0.25 mg/ml in drinking water

Row | Structure (SMILES) | restoration of normoglycemia (Newly-diabetic NOD mice [1]) | time at which mice became hyperglycemic again (Newly-diabetic NOD mice [1]) | half-life in plasma [2] | numbers of bihormonal cells versus groups treated with lower dosages of GABA (Newly-diabetic NOD mice [3]; GABA 20 mg/ml in drinking water with anti-CD3) | frequency of bihormonal glucagon+ insulin+ cells versus control groups (Newly-diabetic NOD mice [3]; all GABA-treated groups (250 μg/kg IP, 6 or 20 mg/ml in water), all with anti-CD3) | increase in the frequency of insulin+ cells per islet relative to control groups who received anti-CD3 alone (Newly-diabetic NOD mice [3]; highest GABA dose (20 mg/ml in drinking water) with anti-CD3) | frequency of splenic CD4+Foxp3+ Tregs [4] | frequency of splenic CD8+CD122+PD-1+ Tregs [4] | frequency of CD4+CD25+Foxp3+ cells in the PLN [5] | frequency of CD8+CD122+PD-1+ cells in the PLN [5] | affinity for GABA-R, higher than GABA (GABA-R) | induction of remission [6] | half-life in plasma compared with GABA [2] | water or food consumption or body weights over the course of the study (Newly-diabetic NOD mice [7]; homotaurine 0, 0.08, 0.25 or 0.75 mg/ml in drinking water) | delay of disease progression (mean) (Newly-diabetic NOD mice [7]; [8]) | effect on disease progression (Newly-diabetic NOD mice [7]; [8]) | restoration of normoglycemia (Newly-diabetic NOD mice [7]; [9]) | time at which most mice became hyperglycemic again (Newly-diabetic NOD mice [7]; [9]) | effect on disease progression (Newly-diabetic NOD mice [7]; homotaurine 0.75 mg/ml in drinking water, on average less effective than 0.25 mg/ml) | mean remission period for all mice (Newly-diabetic NOD mice [7]; homotaurine monotherapy 0.25 mg/ml in drinking water)
1 | NCCCC(=O)O [GABA, γ-aminobutyric acid] | restored normoglycemia in all mice | generally within five weeks | 20 min | greater numbers of bihormonal cells | significantly increased | 26 fold |  |  |  |  |  |  |  |  |  |  |  |  |  | 
2 | NCCCS(=O)(=O)O [homotaurine] |  |  |  |  |  |  | increased the frequency | increased the frequency | significantly increased | significantly increased | > 3 fold | unable to induce remission | longer half-life than GABA | None of the mouse groups under study differed | 2.2 weeks | delayed disease progression for a very brief period | restored normoglycemia in all mice | ≤ 6 weeks | some delay in disease progression | 14 weeks
